Source: PubChem BioAssay AID602135 (Sanford-Burnham Center for Chemical Genomics, 2011)
The source made the active and inactive calls.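 Rule for the calls: active = mean IC50 under 10 µM against uracil DNA glycosylase, used as a counter screen; inactive = the rest.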

The compounds below were run against Uracil-DNA glycosylase (Escherichia coli (strain K12)) (UniProt P12295) (assay: uracil-DNA glycosylase cleavage inhibition – biochemical, UDG counterscreen, counter-screen for APOBEC3G deaminase inhibitor project, SAR follow-up (AID 602135)). Conditions: FAM/TAMRA oligo fluorescence.
Uracil-DNA glycosylase (Escherichia coli (strain K12)), sequence (P12295 whole entry, looked up): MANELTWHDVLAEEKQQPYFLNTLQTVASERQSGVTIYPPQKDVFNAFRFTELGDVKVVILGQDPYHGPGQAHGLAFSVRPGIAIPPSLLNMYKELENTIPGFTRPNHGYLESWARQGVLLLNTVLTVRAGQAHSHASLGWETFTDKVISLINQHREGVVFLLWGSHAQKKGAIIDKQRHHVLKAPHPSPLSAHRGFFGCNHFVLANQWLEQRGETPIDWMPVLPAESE
CC(C(=O)O)N1C(=O)/C(=C/C=C/c2ccco2)SC1=S (stereo not given) was tested, and the IC50 was > 99 µM (inactive). For C[n+]1cccc(C(=O)Nc2ccccc2)c1, the IC50 was > 99 µM (inactive). With CCn1ncc(-c2ccnc3cc(C(=O)O)nn23)c1C the IC50 was > 99 µM (inactive). With CCOC(=O)c1ccc2c(c1)N(C)C(=O)c1ccccc1S2 the IC50 was > 99 µM (inactive). With CCC(=O)Nc1cccc(-c2nnc(SCC(=O)NCc3ccco3)n2C)c1 the IC50 was > 99 µM (inactive). For CCCCCn1c(=O)c2ccccc2n2c(=S)[nH]nc12, the IC50 was > 99 µM (inactive). In the case of Cc1ccc2[nH]cc(/C=C/c3cc[n+](C)cc3)c2c1, the IC50 is reported as > 99 µM (inactive). In the case of CC(C)(C)NC(=O)CSc1nc2ccc(NC(=O)CSc3nnc(N)s3)cc2s1, the IC50 is reported as > 99 µM (inactive). O=C(NCc1ccc2c(c1)OCO2)c1cc2ncc(Br)cn2n1 was tested, and the IC50 was > 99 µM (inactive). S=c1[nH]nc(NCCc2ccccc2)s1 was tested, and the IC50 was > 99 µM (inactive). In the case of Cc1ccc(-c2csc3n[nH]c(=S)n23)cc1, the IC50 is reported as > 99 µM (inactive). In the case of Nn1c(-c2cccc(Br)c2)n[nH]c1=S, the IC50 is reported as > 99 µM (inactive). In the case of CC(=O)c1ccc2c(c1)C1C=CCC1C(C(=O)O)N2 (stereo not given), the IC50 is reported as > 99 µM (inactive). For O=C1NC(=S)NC(=O)C1=Cc1ccc2c(c1)CCN2CCCCl, the IC50 was > 99 µM (inactive). With S=c1[nH]nc2c3c4c(sc3ncn12)CCCC4 the IC50 was > 99 µM (inactive). In the case of COc1ccc(-c2nc(=S)[nH][nH]2)cc1, the IC50 is reported as > 99 µM (inactive). For Cc1ccc(C=Nn2c(-c3ccco3)n[nH]c2=S)s1, the IC50 was > 99 µM (inactive). With Cc1ccc[n+](CC(=O)Nc2cc(C(F)(F)F)ccc2N2CCOCC2)c1 the IC50 was > 99 µM (inactive). For CCCCn1c(=O)c2ccccc2n2c(=S)[nH]nc12, the IC50 was > 99 µM (inactive). In the case of O=C(NCc1ccc2c(c1)OCO2)c1nn2cccnc2c1Cl, the IC50 is reported as > 99 µM (inactive). In the case of Cc1ccc(C)n1Cc1ccc(C(=O)O)cc1, the IC50 is reported as > 99 µM (inactive). For COc1cc(C=Nn2c(-c3n[nH]c4c3CCC4)n[nH]c2=S)ccc1O, the IC50 was > 99 µM (inactive). With Cn1nc([N+](=O)[O-])nc1S(C)(=O)=O the IC50 was > 99 µM (inactive). With Cc1ccc2c(c1C)NC(C(=O)O)C1CC=CC21 (stereo not given) the IC50 was > 99 µM (inactive). In the case of CC1(C)Oc2ccc3ccc(=O)oc3c2/C(=C/NCCO)C1=O, the IC50 is reported as > 99 µM (inactive).
